Data reported in patent US9546156B2, “N-bicyclic aryl,N'-pyrazolyl urea, thiourea, guanidine cyanoguanidine compounds as TrkA kinase inhibitors” (Array BioPharma Inc., priority 2012, dated 2017).
Structures can show the parent of a compound that is named as a salt.

target: T1, His-tagged recombinant human TrkA (Homo sapiens, UniProt P04629); assay: TrkA LanthaScreen Eu Kinase Binding Assay; details: averaged IC50; TR-FRET binding assay, 60 min, 22° C.; read-out: TrkA Enzyme IC50
T1 construct: 6HIS tagged cytoplasmic domain from Invitrogen, Catalog No. PV3144; purchased Invitrogen PV3144
Protocol: TrkA binding activity was determined in a TrkA LanthaScreen™ Eu Kinase Binding Assay. 5 nM His-tagged recombinant human TrkA (6HIS tagged cytoplasmic domain from Invitrogen, Catalog No. PV3144) was incubated with 4 nM Alexa-Fluor® Tracer 236 (Invitrogen Cat. No. PV5592), 2 nM biotinylated anti-His (Invitrogen Cat. No. PV6090), and 2 nM europium-labeled Streptavidin (Invitrogen Cat. No. PV5899), in buffer (25 mM MOPS, pH 7.5, 5 mM MgCl2, 0.005% Triton X-100). Three fold serial dilutions of compounds of the invention in DMSO were added to a final percentage of 2% DMSO. After 60-minute incubation at 22° C., the reaction was measured using the EnVision multimode plate reader (PerkinElmer) via TR-FRET dual wavelength detection at […]. The percent of control was calculated using a ratiometric emission factor. The IC50 values were determined by fitting a four parameter model to the percent of control data.
Table A provides averaged IC50 values for compounds of the invention when tested in the assay of Example A, where A represents an averaged IC50 value <100 nM; B represents an averaged IC50 value from 100 to 1,000 nM; and C represents an averaged IC50 value from 1,000 to 10,000 nM.

T1 sequence (P04629 440-796 limits assumed): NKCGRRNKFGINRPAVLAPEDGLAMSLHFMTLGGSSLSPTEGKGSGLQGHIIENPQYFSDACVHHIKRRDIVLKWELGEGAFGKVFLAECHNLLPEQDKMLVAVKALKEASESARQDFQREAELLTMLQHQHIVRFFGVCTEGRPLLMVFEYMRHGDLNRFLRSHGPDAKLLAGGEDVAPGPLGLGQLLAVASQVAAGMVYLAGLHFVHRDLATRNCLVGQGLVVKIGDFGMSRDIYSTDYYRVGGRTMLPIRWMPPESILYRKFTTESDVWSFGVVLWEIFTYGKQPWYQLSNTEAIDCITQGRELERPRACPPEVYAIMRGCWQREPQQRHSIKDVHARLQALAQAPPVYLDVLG

IC50 [nM] | SMILES
< 100 | O=C(Nc1ccc(Cl)c2ccccc12)Nc1c2c(nn1-c1ccccc1)CCC2 [Example 2, 1-(4-chloronaphthalen-1-yl)-3-(2-phenyl-2,4,5,6-tetrahydrocyclopenta[c]pyrazol-3-yl)urea]
100 to 1000 | COCc1cc2c(NC(=O)Nc3c(C)c(-c4cnn(C)c4)nn3-c3ccccc3)c(Cl)ccc2cn1 [Example 4, 1-(6-chloro-3-(methoxymethyl)isoquinolin-5-yl)-3-(1′,4-dimethyl-1-phenyl-1H,1′H-[3,4′-bipyrazol]-5-yl)urea]
< 100 | COCc1cc2c(NC(=O)Nc3c(C)c(-c4cnn(C)c4)nn3-c3ccccc3)ccc(Br)c2cn1 [Example 5, 1-(8-bromo-3-(methoxymethyl)isoquinolin-5-yl)-3-(1′,4-dimethyl-1-phenyl-1H,1′H-[3,4′-bipyrazol]-5-yl)urea]
100 to 1000 | Cc1c(-c2ccc(=O)n(C)c2)nn(-c2ccccc2)c1NC(=O)Nc1cncc2ccccc12 [Example 25, 1-(isoquinolin-4-yl)-3-(4-methyl-3-(1-methyl-6-oxo-1,6-dihydropyridin-3-yl)-1-phenyl-1H-pyrazol-5-yl)urea]
< 100 | CNC(=O)c1nn(-c2ccccc2)c(NC(=O)Nc2ccc(Cl)c3ccccc23)c1C [Example 8, 5-(3-(4-chloronaphthalen-1-yl)ureido)-N,4-dimethyl-1-phenyl-1H-pyrazole-3-carboxamide]
< 100 | Cc1c(C2CCN(C)CC2)nn(-c2ccccc2)c1NC(=O)Nc1ccc(Cl)c2ccccc12 [Example 14, 1-(4-chloronaphthalen-1-yl)-3-(4-methyl-3-(1-methylpiperidin-4-yl)-1-phenyl-1H-pyrazol-5-yl)urea hydrochloride]
< 100 | Cc1c(-c2cnn(C)c2)nn(-c2ccccc2)c1NC(=O)Nc1ccc(Cl)c2ccccc12 [Example 9, 1-(4-chloronaphthalen-1-yl)-3-(1′,4-dimethyl-1-phenyl-1H,1′H-[3,4′-bipyrazol]-5-yl)urea]
< 100 | Cc1c(C2CCN(CC(F)(F)F)CC2)nn(-c2ccccc2)c1NC(=O)Nc1ccc(Cl)c2ccccc12 [Example 13, 1-(4-chloronaphthalen-1-yl)-3-(4-methyl-1-phenyl-3-(1-(2,2,2-trifluoroethyl)piperidin-4-yl)-1H-pyrazol-5-yl)urea]
< 100 | Cc1c(-c2ccc(=O)n(C)c2)nn(-c2ccccc2)c1NC(=O)Nc1ccc(Cl)c2ccccc12 [Example 1, 1-(4-chloronaphthalen-1-yl)-3-(4-methyl-3-(1-methyl-6-oxo-1,6-dihydropyridin-3-yl)-1-phenyl-1H-pyrazol-5-yl)urea]
1000 to 10000 | Cc1c(C2CCNCC2)nn(-c2ccccc2)c1NC(=O)Nc1ncc(Cl)c2ccccc12 [Example 22, 1-(4-chloroisoquinolin-1-yl)-3-(4-methyl-1-phenyl-3-(piperidin-4-yl)-1H-pyrazol-5-yl)urea hydrochloride]
100 to 1000 | Cc1c(-c2cnn(C)c2)nn(-c2ccccc2)c1NC(=O)Nc1cccc2ccccc12 [Example 10, 1-(1′,4-dimethyl-1-phenyl-1H,1′H-[3,4′-bipyrazol]-5-yl)-3-(naphthalen-1-yl)urea]
< 100 | COCc1ccc2cccc(NC(=O)Nc3c(C)c(-c4ccc(=O)n(C)c4)nn3-c3ccccc3)c2c1 [Example 17, 1-(7-(methoxymethyl)naphthalen-1-yl)-3-(4-methyl-3-(1-methyl-6-oxo-1,6-dihydropyridin-3-yl)-1-phenyl-1H-pyrazol-5-yl)urea]
< 100 | COCc1cc2c(NC(=O)Nc3c(C)c(-c4cnn(C)c4)nn3-c3ccccc3)cccc2cn1 [Example 3, 1-(1′,4-dimethyl-1-phenyl-1H,1′H-[3,4′-bipyrazol]-5-yl)-3-(3-(methoxymethyl)isoquinolin-5-yl)urea trifluoroacetate]
< 100 | COCc1ccc2c(Cl)ccc(NC(=O)Nc3c(C)c(-c4cnn(C)c4)nn3-c3ccccc3)c2c1 [Example 19, 1-(4-chloro-7-(methoxymethyl)naphthalen-1-yl)-3-(1′,4-dimethyl-1-phenyl-1H,1′H-[3,4′-bipyrazol]-5-yl)urea]
< 100 | COCc1ccc2c(Cl)ccc(NC(=O)Nc3c(C)c(C4CCN(C)CC4)nn3-c3ccccc3)c2c1 [Example 20, 1-(4-chloro-7-(methoxymethyl)naphthalen-1-yl)-3-(4-methyl-3-(1-methylpiperidin-4-yl)-1-phenyl-1H-pyrazol-5-yl)urea hydrochloride]
1000 to 10000 | Cc1c(-c2cnn(C)c2)nn(-c2ccccc2)c1NC(=O)Nc1ncc(Cl)c2ccccc12 [Example 23, 1-(4-chloroisoquinolin-1-yl)-3-(1′,4-dimethyl-1-phenyl-1H,1′H-[3,4′-bipyrazol]-5-yl)urea]
1000 to 10000 | Cc1c(-c2cnn(C)c2)nn(-c2ccccc2)c1NC(=O)Nc1cncc2ccccc12 [Example 24, 1-(1′,4-dimethyl-1-phenyl-1H,1′H-3,4′-bipyrazol-5-yl)-3-(isoquinolin-4-yl)urea]
< 100 | Cc1c(C2CCNCC2)nn(-c2ccccc2)c1NC(=O)Nc1ccc(Cl)c2ccccc12 [Example 12, 1-(4-chloronaphthalen-1-yl)-3-(4-methyl-1-phenyl-3-(piperidin-4-yl)-1H-pyrazol-5-yl)urea hydrochloride]
< 100 | O=C(Nc1ccc(Cl)c2ccccc12)Nc1c(Cl)c(OCC2CCNCC2)nn1-c1ccccc1 [Example 11, 1-(4-chloro-1-phenyl-3-(piperidin-4-ylmethoxy)-1H-pyrazol-5-yl)-3-(4-chloronaphthalen-1-yl)urea hydrochloride]
< 100 | Cc1c(C(N)=O)nn(-c2ccccc2)c1NC(=O)Nc1ccc(Cl)c2ccccc12 [Example 7, 5-(3-(4-chloronaphthalen-1-yl)ureido)-4-methyl-1-phenyl-1H-pyrazole-3-carboxamide]
< 100 | COCc1ccc2ccc(Cl)c(NC(=O)Nc3c(C)c(-c4cnn(C)c4)nn3-c3ccccc3)c2c1 [Example 18, 1-(2-chloro-7-(methoxymethyl)naphthalen-1-yl)-3-(1′,4-dimethyl-1-phenyl-1H,1′H-[3,4′-bipyrazol]-5-yl)urea]
< 100 | COC[C@H](O)COc1nn(-c2ccccc2)c(NC(=O)Nc2ccc(Cl)c3ccccc23)c1C [Example 15, (S)-1-(4-chloronaphthalen-1-yl)-3-(3-(2-hydroxy-3-methoxypropoxy)-4-methyl-1-phenyl-1H-pyrazol-5-yl)urea]
< 100 | COCc1cc2c(NC(=O)Nc3c(C)c(-c4cnn(C)c4)nn3-c3ccccc3)ccc(Cl)c2cn1 [Example 6, 1-(8-chloro-3-(methoxymethyl)isoquinolin-5-yl)-3-(1′,4-dimethyl-1-phenyl-1H,1′H-[3,4′-bipyrazol]-5-yl)urea]
< 100 | COCc1ccc2c(Cl)ccc(NC(=O)Nc3c(C)c(-c4ccc(=O)n(C)c4)nn3-c3ccccc3)c2c1 [Example 21, 1-(4-chloro-7-(methoxymethyl)naphthalen-1-yl)-3-(4-methyl-3-(1-methyl-6-oxo-1,6-dihydropyridin-3-yl)-1-phenyl-1H-pyrazol-5-yl)urea]
